# Assay results published in a melting point compilation (Tetko et al.; mined from patent text by program, amines drawn as free bases though some values may be those of a salt).
row,SMILES,melting point [°C]
1,O=C(CCCCCNC(=O)OCc1ccccc1)NCCCCCO,92.5 to 94
2,CSc1nc(O)c(-c2ccc(C)cc2)c(O)n1,226
3,CCCc1c(OCCCOc2cccc(C(=O)O)c2)ccc(C(C)=O)c1O,142 to 143
4,COC(=O)CCSC(SCCC(=O)OC)c1cccc(C=Cc2nc3cc(Cl)ccc3o2)c1,66 to 67
5,CC(CC#N)n1nnc2cc3c(=O)n(C4CC4)nnc3cc2c1=O (centres undefined),240 to 242
6,CCc1c(-c2ccc(OC)cc2)c2cc(C(C)=O)c3cccc1n32,73 to 75
7,Cc1ccc2c(c1)CCCN2CC(NS(=O)(=O)c1c(Cl)cc(Cl)cc1Cl)C(C)C (centres undefined),144 to 145
8,O=c1[nH]cccc1-c1cccnc1,189 to 192
9,Cc1c(Cc2cccc(C(F)(F)F)c2)sc2c(-c3cc(F)cc(C(=O)NCC(N)=O)c3)cccc12,46 to 47
10,O=C(Nc1cnc2ccc(Cl)cc2c1-c1ccccc1)Nc1c(F)cccc1F,228 to 229
11,Cc1ccc(Cl)c(Nc2ccccc2-c2nnc(N)o2)c1Cl,255 to 257
12,CCCCS(=O)(=O)Nc1ccc(Oc2ccc3cccnc3c2)cc1,168
13,CCCN(c1ccc(C(F)(F)F)cc1)c1nc(=O)c2cccnc2s1,216 to 217
14,COC(=O)c1ccc2c(c1)CN(C(=O)c1ccc(-c3ccccc3)cc1)C2,172 to 180
15,CS(=O)(=O)OCCCc1ccc(OCc2coc(/C=C/c3ccccc3)n2)cc1,111 to 112
16,COc1ccc2cccc(N3C(=O)CN(Cc4ccccc4)CC3=O)c2c1,178
17,Oc1ccc(-c2ccc(CCC(O)CCc3cccnc3)cc2)cc1 (centres undefined),140 to 143
18,O=C(O)CC1CCC2(CC1)OCCO2,110 to 113
19,Nc1nc(N)nc(C2CCN(c3ccccc3)CC2)n1,202 to 204
20,Cc1cc(C)c(COc2cccc3c2C(=O)c2c(Cl)ccc(Cl)c2C3=O)c(C)c1,216 to 218
21,CN(C(=O)c1ccc2nonc2c1)C1CCC1,51 to 52
22,Nc1ccc(F)c(N2C(=O)C3=C(CCCC3)C2=O)c1,134 to 136
23,COC(=O)C12CC(C(=O)OC)(C1)C2,92
24,Cn1c(COc2cccc(C(=O)O)c2)nc2ccc(Oc3cccc(OC(F)(F)F)c3)cc21,221 to 227
25,CCn1ncc2c(O)c3c(nc21)CCc1ccccc1C3=O,154 to 155

row,SMILES,melting point [°C]
1,O=C(O)c1ccc(NC(c2ccc(Cl)cc2)c2ccc(Cl)cc2)cc1,245 to 247
2,CCOc1cc(C(Cl)(Cl)Cl)cc(OC)n1,36 to 38
3,C[C@@H](Nc1ncnc2[nH]c(-c3ccc(CO)cc3)cc12)c1ccccc1,> 300
4,CCOC(=O)c1nn(-c2ccc(NC)cc2)c(=O)c2c(N)scc12,211 to 213
5,O=P(c1ccccc1)(c1ccccc1)c1nnc(P(=O)(c2ccccc2)c2ccccc2)c2ccccc12,225 to 228
6,CC(C)NCCC(CCN1CCCCC1)(C(N)=O)c1ccccc1Cl (centres undefined),134 to 137
7,O=C(Nc1cc(C(F)(F)F)ccc1N1CCCC1)c1ccncc1,134 to 135
8,CS(=O)(=O)N1CCn2c(nc3c(N)nc4cc(OCc5ccccc5)ccc4c32)C1,266 to 268
9,CC(C)(C)c1cc(C(=O)c2ccc(C(=O)O)s2)cc(C(C)(C)C)c1O,228 to 230
10,Cc1nc(N2CCN(c3ccccc3)C2=O)sc1C(=O)O,286 to 289
11,CCC1(C(F)(F)F)C(=O)NC(=O)NC1=O,208 to 209
12,Cc1nn(-c2c(Cl)cc(Cl)cc2Cl)c(N)c1C(=O)c1ccccc1Cl,220
13,C=CCc1cc(Cc2cnc(N)nc2N)c2cccnc2c1OC,227 to 228
14,CC(C)C(Oc1ccccc1)C(=O)OC1CC(O)C=C2C=CC(C)C(CCC3CC(O)CC(=O)O3)C21 (mixture of isomers),143 to 145
15,Cn1c(-c2ccccc2)nc2nc(-c3ccc(Cl)cc3)nn2c1=S,267 to 270
16,CCOC(=O)C1=C(C)NC(=O)N(C(=O)CC)C1c1cccc([N+](=O)[O-])c1 (centres undefined),152 to 154
17,O=c1c(-c2cc[nH]n2)coc2ccccc12,141 to 142
18,CCC(=O)Nc1c(C(=O)c2cccc(Cl)c2)[nH]c2cc(Cl)ccc12,129 to 130
19,CCOc1ccc2nc(N3CCC(OC[C@H](C)NC(C)=O)CC3)sc2c1,129 to 131
20,CC1(C)CCNC(=O)C(Cl)(Cl)C1,108 to 110
21,O=[N+]([O-])c1cn(-c2cccnc2)nc1F,139 to 141
22,COc1ccc(-c2cc(Cl)c3ccccc3n2)cc1Cl,113 to 116
23,CCN(CC)C(=O)c1cc(-c2ccccc2)c2occc2c1,56
24,Cc1cc(C(F)(F)F)n2nc(S(=O)(=O)Nc3c(Cl)cccc3Cl)nc2n1,237 to 239
25,COc1ccc(-c2cc(=O)n(CCc3ccc(Cl)cc3Cl)nc2-c2ccc(OC)cc2)cc1,119 to 120

row,SMILES,melting point [°C]
1,CC1=Nc2ccccc2N(Cc2ccccc2)C(=O)C1,111 to 113
2,Cc1nc(NC(=O)c2cnn3c(C(F)(F)F)cc(-c4ccc(C(F)(F)F)cc4)nc23)sc1S(=O)(=O)N(CCO)CCO,214
3,CC(c1cc(Cl)cc([N+](=O)[O-])c1O)c1cc(Br)cc([N+](=O)[O-])c1O (centres undefined),161
4,COc1ccc2cc(NC(=O)OC(C)(C)C)ccc2c1,124 to 127
5,CCCc1nc(CO)c(C(=O)OCC)n1Cc1ccc(-c2ccccc2-c2nnnn2C(c2ccccc2)(c2ccccc2)c2ccccc2)cc1,135 to 138
6,Cc1ccc2cc(C(=O)O)oc2c1C,235 to 237
7,CCC1CCC(=O)C=C1c1ccc(OCC(=O)O)cc1Cl (centres undefined),138 to 140
8,O=C(c1ccc2[nH]ccc2c1)N1CCN(CCc2ccc([N+](=O)[O-])cc2)CC1,204 to 206
9,CCn1c(=O)sc2cc(C(O)c3ccc([N+](=O)[O-])cc3)ccc21 (centres undefined),160 to 162
10,CSc1ccc(C=CC(=O)c2cccc(Br)c2)cc1,148
11,CC(C)(C)OC(=O)N1CCN(c2ccc(N3CC(CO)OC3=O)cc2F)CC1 (centres undefined),144 to 146
12,CC1C(=O)Oc2cc(N3CCOCC3)c(Br)cc21 (centres undefined),99 to 100
13,C=CC(O)c1cc(OC)c2oc(-c3ccc(O)c(OC)c3)c(C)c2c1 (centres undefined),164 to 167
14,CCCCCC(CC(=O)Nc1c(C(C)C)cccc1C(C)C)c1cccc2c1OCO2 (centres undefined),114 to 115
15,CCCc1nc(C(N)=O)c2n1-c1ccc(Cl)cc1C(c1ccccc1Cl)=NC2,298 to 300
16,COc1ccc2c(c1)C1(O)C(=O)c3ccccc3C1(O)O2 (centres undefined),186 to 189
17,Cc1ccc2nc(N3CCN(c4ncccc4C(F)(F)F)CC3)[nH]c2c1,216 to 217
18,C=Cc1ccc2nnn(OS(C)(=O)=O)c2c1,129 to 130
19,CCOCc1nc2c(N)nc3ccccc3c2n1CCCC(=O)N1CCOCC1,201 to 203
20,CSc1ncnc2c1ncn2COC(COC(C)=O)COC(C)=O,191 to 193
21,COC(=O)c1ccc(C2NCCc3c2[nH]c2ccccc32)cc1 (centres undefined),179
22,CO/C=C(/C(=O)OC)c1ccccc1Oc1cccc(O)c1,117 to 118
23,O=[N+]([O-])c1ccc2c(c1-c1n[nH]cc1Cl)OC(F)(F)O2,180
24,Cn1c(CO)nc2cnccc21,285 to 290
25,Cc1cccc(NC(=O)NC2CN(C(=O)C(C)(C)C)c3ccccc3N(CC(C)C)C2=O)c1 (centres undefined),152

row,SMILES,melting point [°C]
1,CCN(CC)c1ccc(/C=C/C(=O)CC(=O)/C=C/c2ccc3cc[nH]c3c2)cc1,110 to 118
2,CCN(c1cccc2cc(-c3ncc(COc4ccc(C(=O)O)cc4)s3)[nH]c12)S(=O)(=O)c1cccs1,188
3,Cc1cc(NC(=O)c2ccc(F)cc2)c(C)cc1N,174 to 176
4,CC(C)(O)CCOc1c(-c2ccc(S(C)(=O)=O)cc2)cnn(-c2ccc(Cl)c(Cl)c2)c1=O,118 to 120
5,Cc1cc(S(C)(=O)=O)ccc1-n1nc(C(F)(F)F)cc1-c1ccc(-c2ccco2)cc1,205
6,CNc1nc(-c2ccccc2)c(-c2nc(N)nc(Nc3cccc([N+](=O)[O-])c3)n2)s1,277
7,CC(C)c1ccc2nc(C(F)(F)F)c(C(=O)O)c(O)c2c1,206
8,COC(=O)c1cnc2cccc(OC)c2c1,102
9,O=C(O)CCC1CNC(=O)CC1c1ccc(F)cc1 (centres undefined),139 to 141
10,Cc1ccc2c(C(=O)C3CSC(c4cccnc4)N3)c[nH]c2c1 (centres undefined),132 to 138
11,CC(=S)NC[C@H]1CN(c2ccc(N3CCC4(CC3)OCCO4)c(F)c2)C(=O)O1,141 to 143
12,CC(=O)Nc1cccc2c1C(C#N)C2 (centres undefined),< 50
13,COc1ccc2nn(-c3cc(OCCCO)cc(C(C)(C)C)c3O)nc2c1,128 to 130
14,O=C(O)CCC(=O)c1ccc(Cl)c(S(=O)(=O)NCc2ccccc2Cl)c1,158
15,CCOC(=O)C1=C(N)NC2=C(C(=O)CCC2)C1c1cccc(C)n1 (centres undefined),> 260
16,O=C(Oc1ccc(C(=C2CCCCC2)c2ccc(OC(=O)c3ccccc3)c(OC(=O)c3ccccc3)c2)cc1OC(=O)c1ccccc1)c1ccccc1,176
17,CCN1C(=O)C(C)(C)C(=O)N(C)c2cc(OCCCn3c(-c4ccccc4)cc4ccccc43)ccc21,140 to 142
18,c1ccc(CN2CCN(c3onc4c3CCc3ccccc3-4)CC2)cc1,148 to 149
19,CC(=O)NC[C@H]1CN(c2ccc(N3CCC(O)(CO)CC3)c(F)c2)C(=O)O1,98 to 100
20,CNC(=O)Nc1nnc(C(F)F)s1,198 to 200
21,COc1cc(CCN2CCN(c3nsc4ccccc34)CC2)c([N+](=O)[O-])cc1OC,135
22,CC(=O)N1CCN(Cc2cc(C)c(O)c(C)c2)CC1,150 to 151
23,O=C(O)Cc1ccc(Cc2nc3c(F)c(F)cc(F)c3s2)s1,132 to 133
24,O=C(c1ccccc1)c1cc(O)c(O)c([N+](=O)[O-])c1,132
